Test results reported in patent publication US4670421A, “Antiatherosclerotic silanes” (American Cyanamid Company, priority 1982, dated 1987).

Columns and labels:
[1] = molecular target: T1, fatty acyl CoA:cholesterol acyl transferase (ACAT) (Rattus norvegicus, UniProt O70536); assay: Inhibition of fatty acyl CoA:cholesterol acyl transferase (ACAT) in vitro (rat adrenal supernatant, oleoyl CoA-14C); format: biochemical; details: final concentration 5.2 μg./ml., 37° C.; for inhibition at 5.2 µg/mL: pH 7.4, rat adrenal supernatant; for % Inhibition (ACAT): rat adrenal supernatant, pH 7.4
T1 construct: Rat adrenals were homogenized in 0.2M monobasic potassium phosphate buffer; from tissue; host or cells: rat adrenals, 1000 x g supernatant of the homogenate containing the microsomal fraction
T1 sequence (O70536 1-545): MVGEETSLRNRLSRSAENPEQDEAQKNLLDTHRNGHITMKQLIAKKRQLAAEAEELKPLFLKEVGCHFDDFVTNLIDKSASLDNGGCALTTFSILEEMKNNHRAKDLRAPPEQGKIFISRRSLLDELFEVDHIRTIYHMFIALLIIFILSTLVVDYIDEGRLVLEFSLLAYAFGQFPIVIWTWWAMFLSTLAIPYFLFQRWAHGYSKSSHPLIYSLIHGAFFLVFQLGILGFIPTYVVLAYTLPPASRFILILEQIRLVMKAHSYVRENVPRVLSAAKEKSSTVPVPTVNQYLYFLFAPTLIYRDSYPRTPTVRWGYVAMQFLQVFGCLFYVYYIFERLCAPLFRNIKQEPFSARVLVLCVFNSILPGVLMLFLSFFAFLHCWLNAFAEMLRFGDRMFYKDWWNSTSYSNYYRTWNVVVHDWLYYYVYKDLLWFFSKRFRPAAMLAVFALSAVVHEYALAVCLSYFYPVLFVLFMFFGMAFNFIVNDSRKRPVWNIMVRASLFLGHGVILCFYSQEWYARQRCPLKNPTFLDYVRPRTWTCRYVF
Experimental: (§1) The compounds of the present invention were assayed for two types of biological activity related to their potential use as antiatherosclerotic agents. Compounds were tested in vitro for their ability to inhibit the enzymes fatty acyl CoA:cholesterol acyl transferase (ACAT) and in vivo for serum hypolipidemic activity as measured by their ability to inhibit lipid absorption in rats. The compounds were tested for their ability to inhibit ACAT according to the following procedure:
Rat adrenals were homogenized in 0.2M monobasic potassium phosphate buffer, pH 7.4, and centrifuged at 1000 times gravity for 15 minutes at 5° C. The supernatant, containing the microsomal fraction, served as the source of the cholesterol-esterifying enzyme, fatty acyl CoA:cholesterol acyl transferase (ACAT). A mixture comprising 50 parts of adrenal supernatant, 10 parts of albumin (BSA) (50 mg./ml.), 3 parts of test compound (final concentration 5.2 μg./ml.) and 500 parts of buffer was preincubated at 37° C. for 10 minutes. After treatment with 20 parts of oleoyl CoA(^14 C-0.4 μCi) the mixture was incubated at 37° C. for 10 minutes. A control mixture, omitting the test compound, was prepared and treated in the same manner. The lipids from the incubation mixture were extracted into an organic solvent and separated by thin-layer chromatography. The cholesteryl ester fraction was counted in a scintillation counter. This procedure is a modification of that described by Hashimoto, et al., Life Scie., 12 (Part II), 1-12 (1973).

[2] = Serum hypolipidemic activity in vivo: lowering of serum cholesterol and triglycerides in rats; parameters: species or system male rats COBS, CD, SD strain; details: oral, 0.1% by weight in diet, 5 days, vs control animals
Experimental: as §1
The compounds were also tested for their ability to lower lipid levels in mammals. The compounds were administered orally admixed with diet (0.1% by weight) to groups of four male rats COBS, CD, SD strain from Charles River Breeding Laboratories, Inc, Wilmington, Mass. A control group of eight rats was maintained on the diet alone; test groups were maintained on the diet plus 0.1% of test compounds by weight. After 5 days treatment, serum cholesterol and triglyceride concentrations were determined by direct enzymatic procedures using a Centrifichem® System 400 autoanalyzer (Union Carbide Co.). Cholesterol concentrations were determined by the combined cholesterol esterase-cholesterol oxidase procedure of Roelschlau et. al., Zeit. Klin. Chem. Lkin. Biochem., 12, 226 (1974). Triglycerides were determined by the combined method of lipase catalyzed hydrolysis of triglycerides to glycerol and free fatty acids [Bucolo, G. and David, H., Clin. Chem. 19, 476 (1973)] and Wahlefeld, A. W., in "Methods of Enzymatic Analysis", Vol. 4, Bergmeyer, H. U., Editor, Academic Press, New York, N.Y. (1974), pp. 1831-1835 and the enzymatic oxidation of the glycerol which leads to the production of colored formazan [Stavropoulos, W. S. and Crouch, R. D., Clin. Chem., 20, No. 7, 857 (1974)]. […] Compounds which produce statistically significant lowering of either sterol or triglycerides are considered to be active.

Compound | inhibition at 5.2 µg/mL [1] | % Lowering of Serum Sterol [2] | % Lowering of Serum Triglycerides [2] | % Inhibition (ACAT) [1]
C[Si](C)(C)CCCNc1ccc(C(=O)O)cc1 [4-[3-(Trimethylsilyl)propylamino]benzoic acid] | 12% | 18% | 53% | 
C[Si](C)(C)CCCCCCCCCCCNc1ccc(C(=O)O)cc1 [4-[11-(Trimethylsilyl)undecylamino]benzoic acid] | 57% | 56% | 75% | 
C[Si](C)(C)CCCCCCCCCCCCCCNc1ccc(C(=O)O)cc1 [4-[14-(Trimethylsilyl)tetradecylamino]benzoic acid] | 60% | 60% | 70% | 
CCOC(=O)c1ccc(NCCC[Si](C)(C)C)cc1 [Ethyl 4-[3-(trimethylsilyl)propylamino]benzoate] | 59% | 23% | 46% | 
CCOC(=O)c1ccc(NCCCCCCCCCCC[Si](C)(C)C)cc1 [Ethyl 4-[11-(trimethylsilyl)undecylamino]benzoate] | 17% | 43% | 22% | 
CCOC(=O)c1ccc(NCCCCCCCCCCCCCC[Si](C)(C)C)cc1 [Ethyl 4-[14-(trimethylsilyl)tetradecylamino]benzoate] | 50% | 47% | 38% | 
C[Si](C)(C)CCCNc1ccc(C(=O)[O-])cc1.[Na+] [Sodium 4-[3-(trimethylsilyl)propylamino]benzoate] |  | 36% | 23% | 23%
C[Si](C)(C)CCCCCCCCCCCNc1ccc(C(=O)[O-])cc1.[Na+] [Sodium 4-[11-(trimethylsilyl)undecylamino]benzoate] |  | 52% | 54% | 56%
C[Si](C)(C)CCCCCCCCCCCCCCNc1ccc(C(=O)[O-])cc1.[Na+] [Sodium 4-[14-(trimethylsilyl)tetradecylamino]benzoate] |  | 61% | 78% | 62%
